In PMC6962373, “Combinatorial allosteric modulation of agonist response in a self-interacting G-protein coupled receptor” (Communications Biology, 2020):
Like-named read-outs stand apart in the source and are kept apart here.

How the values were obtained:
Assay type in all cases: cell-based, human
[1] = tested on: HEK293 cells expressing S1PR1-eGFP; test: Fluorescence-based analysis of S1PR1 down-modulation, S1PR1-eGFP; conditions: 4 h-long treatment
Procedure: (§7) Cells were washed twice in ice-cold phosphate-buffered saline and lysed in 20 mM HEPES, 150 mM NaCl, 1% Triton X-100, 0.15% Nonidet P-40, 1× HALT™ Proteases & Phosphatases inhibitor cocktail, 1.25 U/mL Benzonase. Lysates were clarified were used and 50 µg of total protein from each sample were read in the Cary Eclipse Varian spectrofluorometer with 488 nm λEx and 509 nm λEm to measure the eGFP amount.

[2] = tested on: HEK293 cells expressing mS1PR1-eGFP; test: Confocal microscopy count of cytosolic eGFP+ clusters (receptor internalisation), mS1PR1-eGFP; conditions: 0.1 µM, 20 min
Procedure: (§1) Cells expressing S1PR1-eGFP or mS1PR1-eGFP were plated onto poly-L-lysine-coated 8 well µ-slides (Ibidi) at 3 × 10^4 cell/well. […] Images were deconvoluted using Huygens Professional Software (Scientific Volume Imaging). Mid-plane z-sections were used for counting cytosolic GFP^+ vesicles in cells stimulated for 20 min. Confocal imaging was performed at the Advanced Light and Electron Microscopy Bioimaging Centre of IRCCS San Raffaele Scientific Institute. We used a custom Matlab script (Supplementary Data 1) performing the following image analysis: (i) the membranes were segmented from the image, identifying regions of both absolute and local high intensity (Supplementary Fig. 9A–G) in order to include all the membranes independently of their intensity; (ii) morphological erosion was used to clear small objects and to smooth the edges of the identified membranes (Supplementary Fig. 9H, I); (iii) the region of interest was defined as the region completely enclosed by a membrane (Supplementary Fig. 9J, K); (iv) GFP^+ cytosolic vesicles were identified as local intensity maxima (Supplementary Fig. 9L–O) within the region of interest and counted. Experiments were replicated independently three times. The number of vesicles from 40 to 150 cells were counted as detailed in Fig. 4 legend and the statistical analysis performed with the GraphPad Prism software.

[3] = tested on: HEK293 cells expressing S1PR1; test: ERK1/2 phosphorylation ELISA/immunoblot in HEK293 cells expressing S1PR1
Procedure: (§2) Human embryonic kidney-293 (HEK293, ATCC CRL-1573) cells were routinely maintained in complete DMEM/F12 1:1 mixture (Sigma Aldrich) containing 10% FBS and 0.5 mM N-acetyl cysteine. Mycoplasma detection was performed routinely by checking for cytoplasmic DNA and every six months with Universal Mycoplasma Detection Kit (ATCC 30–1012 K). The stop-less coding sequences of either wild-type S1PR1 or mS1PR1 (without the additional modifications present in the constructs for the protein production) were obtained from GeneArt (Thermo Fisher Scientific) and inserted into the HindIII/BamHI-digested pEGFP-N1 vector (Takara) to express S1PR1- and mS1PR1-eGFP. The pEFGP-N1-S1PR1 or pEFGP-N1-mS1PR1 plasmids were further modified by re-introducing the TAG stop codon at the 3′ end of the S1PR1 open reading frame to express untagged S1PR1 or mS1PR1, respectively, using the primer pair 5’-[…]-3’ and 5′-[…]-3′. Cell monolayers were transfected with JetPEI™ (Polyplus) and the appropriate plasmid vectors. Transfected cell cultures were passed once a week for three times and then the GFP^+ cells were sorted in a MoFlo XDP (Beckman Coulter). Sorted cell cultures were expanded and sorted again and the expression of the desired chimeric protein verified by immunoblot. Sorting was performed at the Flow Cytometry Resourc, Advanced Cytometry Technical Applications Laboratory of IRCCS San Raffaele Scientific Institute.
(§3) Two hundred nanomole of S1PR1/L of culture medium were used at […] receptor concentration. Under sterile conditions, purified receptor was first dialysed three times against the serum-free medium. Medium-equilibrated S1PR1 was then incubated 24 h at +4 °C in complete culture medium. The depletion procedure was performed twice for each lot of culture medium. […] The depleted medium was also used to prepare 1000× stock solutions of each of the two S1PR1 agonists or the GRK inhibitor CCG215022, and the 10× ML056 stock solution used in the cell-based experiments.
(§4) HEK293 cells were plated in 96 multi-well plates and grown until 90% confluent. […] To quantify pERK1/2 and total ERK, 40 µg and 5 µg of total protein extract were used from each well, respectively. The chromogenic signals were read at the Sunrise Tecan multi-plate reader and expressed as pERK/ERKTotal signal ratio. […] AKT phosphorylation was quantified by ELISA as above in cell lysates after 5 min stimulation, with the AKT (pS473 + Total) ELISA Kit from Abcam (cat. n. ab176657).

[4] = tested on: HEK293 cells expressing S1PR1-eGFP; test: Confocal microscopy count of cytosolic eGFP+ clusters (receptor internalisation), S1PR1-eGFP; conditions: 0.1 µM, 20 min
Procedure: as §1

[5] = tested on: HEK293 S1PR1 expressing cells; test: AKT phosphorylation ELISA in HEK293 S1PR1 expressing cells; conditions: 0.1 µM S1P or FTY720-P for 5 min, PTX 300 ng/mL, CCG215022 50 µM
Procedure: as §4, with “ab176657). […]” for “ab176657).”
pertussis toxin (PTX) for 18 hours and with 0.1% DMSO alone or with 50 µM CCG215022 […]
20 nM EGF for 5 min. pERK1/2 or pAKT were measured in the cell extracts by ELISA and expressed as relative units; n=12 independent experiments. (b) HEK293 cells expressing […]
(§5) ELISA and expressed as relative units; n=3 independent experiments. […]

[6] = tested on: HEK293 cells expressing mS1PR1; test: ERK1/2 phosphorylation ELISA/immunoblot in HEK293 cells expressing mS1PR1; conditions: for change of potency in stimulating ERK phosphorylation, mS1PR1 vs S1PR1 clones / maximal pERK response in mS1PR1 vs S1PR1 clones: 5 min stimulation, 1 pM–1 mM ligand
Procedure: 95% CI are reported in Supplementary Fig. 4.
as §2, §3, §4

[7] = tested on: HEK293 cells expressing S1PR1-eGFP; test: Anti-GFP immunoprecipitation of S1PR1-eGFP, immunoblot for β-arrestin 1/2 and ERK1/2; conditions: 0.1 µM, co-immunoprecipitation; for S1PR1 binding to β-arrestins in the late signalling phase: 30 min
Procedure: (§6) Cells were washed twice in ice-cold phosphate-buffered saline and lysed in 20 mM HEPES, 150 mM NaCl, 1% Triton X-100, 0.15% Nonidet P-40, 1× HALT™ Proteases and Phosphatases inhibitor cocktail, 1.25 U/mL Benzonase. Clarified lysates were incubated for 1 h at +4 °C with GFP-Trap® resin (Chromotek) and extensively washed with lysis buffer. Finally, the immunopurified material was eluted in 4% SDS and analysed by immunoblot. The equal loading was based on the GFP amount reading the samples in the Cary Eclipse Varian spectrofluorometer with 488 nm λEx and 509 nm λEm. In some experiments, cells expressing S1PR1 without the GFP tag were used as control and the equal loading was based on total protein concentration measured with the BCA method (G Biosciences).

[8] = tested on: HEK293 cells expressing mS1PR1-eGFP; test: Fluorescence-based analysis of S1PR1 down-modulation, mS1PR1-eGFP; conditions: 4 h-long treatment
Procedure: as §7

[9] = tested on: HEK293 cells expressing mS1PR1-eGFP; test: Anti-GFP immunoprecipitation of mS1PR1-eGFP, immunoblot for β-arrestin 1/2 and ERK1/2; conditions: 0.1 µM, co-immunoprecipitation
Procedure: as §6

[10] = tested on: HEK293 S1PR1 expressing cells; test: EGF-mediated ERK1/2 phosphorylation in HEK293 S1PR1 expressing cells (inhibitor specificity control); conditions: CCG215022 50 µM, 20 nM EGF for 5 min
Procedure: HEK293 cells were plated in 96 multi-well plates and grown until 90% confluent. After the S1P-starvation, the cell monolayers were treated as described in the text and then processed using the ERK1/2 (pT202/Y204 + Total) ELISA Kit from Abcam (cat n. ab176660), following the manufacturer guidelines and adding the HALT™ Proteases & Phosphatases inhibitor cocktail (Thermo Fisher Scientific) to the lysis buffer provided with the kit. To quantify pERK1/2 and total ERK, 40 µg and 5 µg of total protein extract were used from each well, respectively. The chromogenic signals were read at the Sunrise Tecan multi-plate reader and expressed as pERK/ERKTotal signal ratio. […] AKT phosphorylation was quantified by ELISA as above in cell lysates after 5 min stimulation, with the AKT (pS473 + Total) ELISA Kit from Abcam (cat. n. ab176657).
Supplementary Figure 2 | Effects of S1PR1 overexpression in HEK293 cells. […]
20 nM EGF for 5 min. pERK1/2 or pAKT were measured in the cell extracts by ELISA and expressed as relative units; n=12 independent experiments. […]
as §5
without 30 min pre-treatment with 100 µM ML056. Cell extracts were then analysed in immunoblotting for S1PR1, ERK1/2 and pERK1/2.

Molecule | number of clusters/cell, 95% CI [2] | number of clusters/cell, 95% CI [4] | effect on AKT phosphorylation [5] | change of potency in stimulating ERK phosphorylation, mS1PR1 vs S1PR1 clones [6] | maximal pERK response in mS1PR1 vs S1PR1 clones [6] | S1PR1 binding to β-arrestins in the late signalling phase [7] | ERK1/2 recruited onto activated S1PR1 [7] | stable interaction of mS1PR1 with β-arrestin [9] | further results
CCCCCCCCc1ccc(CC[C@](N)(CO)COP(=O)(O)O)cc1 [FTY720-P, FTY720 (S)-phosphate] | 8.7–11 clusters/cell | 9.9–14.1 clusters/cell | induced | ten-fold decrease of their potency | not affected | stable binding to β-arrestins | did not show an increase of the interaction with ERK1/2 above baseline levels | neither S1P nor FTY720-P were capable to induce a stable interaction | S1PR1 level in cell lysates (receptor degradation) [1]: barely detectable; time at which pERK1/2 response decreased to the baseline level ([3]; 0.1 µM agonist): 20 min; time of early pERK1/2 peak ([3]; 0.1 µM agonist, S1P-starved cells): 5 min; pERK1/2 kinetics in mS1PR1 cells ([6]; 0.1 µM agonist): stable level of ERK1/2 phosphorylation; mS1PR1 level in cell lysates (receptor degradation) [8]: remained stable
CCCCCCCCCCCCC/C=C/[C@@H](O)[C@@H](N)COP(=O)(O)O [S1P, Sphingosine 1-phosphate] | 5.7–7.7 clusters/cell | 6.7–10.2 clusters/cell | induced | ten-fold decrease of their potency | not affected | only a limited interaction | recruited more ERK1/2 | neither S1P nor FTY720-P were capable to induce a stable interaction | pERK1/2 still detectable after 60 min, % of its maximal value [3]: 50%; time of early pERK1/2 peak [3]: 5 min
pertussis toxin | – | – | abolishes | – | – | – | – | – | effect on S1P- and FTY720-P-induced ERK1/2 phosphorylation ([3]; 300 ng/mL pertussis toxin for 18 h, then 0.1 µM agonist): undetectable; effect on agonist-induced ERK phosphorylation in mS1PR1-expressing clones ([6]; 300 ng/mL PTX, stimulation with either agonist): reduced the ERK phosphorylation to basal
CCCCCCc1cccc(NC(=O)[C@H](N)CCP(=O)(O)O)c1 [ML056] | – | – | – | – | – | – | – | – | effect on agonist-induced signalling response (pERK1/2) ([3]; 30 min pre-treatment with 100 µM ML056, then 0.1 µM S1P, immunoblot): abrogated
CC1=C(C(=O)Nc2ccc3[nH]ncc3c2)C(c2ccc(F)c(C(=O)NCc3ccccn3)c2)NC(=O)N1 (centres unmarked) [CCG215022] | – | – | not modified | – | – | – | – | – | effect on EGF-mediated ERK1/2 phosphorylation [10]: does not inhibit
